Where a chain is given by its changes, count along the chain named.

Assay type in all cases: biochemical
For one test, the target named is T1, ALDH2 (Homo sapiens, UniProt P05091, E504K).
T1 sequence (P05091 18-517 E504K): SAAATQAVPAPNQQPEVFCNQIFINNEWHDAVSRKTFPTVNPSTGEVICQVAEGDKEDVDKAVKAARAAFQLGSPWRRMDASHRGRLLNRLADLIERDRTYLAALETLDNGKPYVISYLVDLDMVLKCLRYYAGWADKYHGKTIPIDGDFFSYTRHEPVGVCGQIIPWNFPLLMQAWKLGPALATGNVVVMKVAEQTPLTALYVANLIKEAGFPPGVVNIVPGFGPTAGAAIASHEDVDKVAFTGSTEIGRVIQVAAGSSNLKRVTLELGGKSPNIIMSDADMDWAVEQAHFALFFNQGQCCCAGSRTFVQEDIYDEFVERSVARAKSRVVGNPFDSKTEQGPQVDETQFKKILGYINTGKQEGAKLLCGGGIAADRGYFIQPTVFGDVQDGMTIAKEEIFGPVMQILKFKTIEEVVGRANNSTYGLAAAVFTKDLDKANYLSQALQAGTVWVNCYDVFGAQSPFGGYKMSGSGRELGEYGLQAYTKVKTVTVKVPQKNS
In words: Screening for ALDH2 agonists (NAD+ to NADH, optionally diaphorase/resazurin-coupled). The following applies: increase of ALDH2 activity; 10 mM acetaldehyde as substrate. On the procedure:
Compounds were screened using a method as depicted schematically in FIG. 4. Essentially, the reaction is carried out at 25° C. in 0.1 NaPPi buffer, pH 9.5, 2.4 mM NAD^+ and 10 mM acetaldehyde as the substrate. Enzymatic activity is measured by a reductive reaction of NAD^+ to NADH at 340 nm. Alternatively, the production of NADH can be coupled with another enzymatic reaction that consumes NADH and that provides for a detectable signal. An example of such an enzymatic reaction is a diaphorase-based reaction, which reduces resazurin to its […] fluorescent compound resorufin.
For example, a 120 μl reaction mixture for ALDH enzymatic activity comprises the following components:
43 μl 150 mM sodium pyrophosphate (NaPPi) buffer, pH 9.0;
15 μl 80 mM acetaldehyde;
1 μl of resazurin (0.2 mg/ml in H2O);
1 μl of diaphorase (1 unit, e.g., from Clostridium kluyveri);
2 μl of variant ALDH2 (e.g., 2 μl of variant ALDH2 at (0.5-2 μg/μl); and
28 μl of a solution comprising an agent to be tested, which agent has been resuspended in an appropriate solvent (e.g., an aqueous solution, DMSO, and the like).
Approximately 65,000 compounds were screened. A number of compounds were identified that increase the activity of ALDH2.

The next test concerns the target T2, ALDH2 isozyme (Homo sapiens, UniProt P05091).
T2 construct: made in house; host or cells: BL21 E. coli
T2 sequence (P05091 18-517): T1 sequence (P05091 18-517 E504K) with K487E
In words: ALDH2 enzymatic activity, spectrophotometric NAD+ to NADH assay. The following applies: acetaldehyde as substrate. On the procedure:
Reagents for plant-derived compounds safrole, isosafrole, piperine, sesamin, capsaicin were purchased from Sigma-Aldrich Chemicals and dihydromethysticin was purchased from AvaChem. Scientific. Piperine related compounds, Alda-101 to Alda-112, were synthesized by standard organic chemistry. All testing compounds were dissolved in dimethyl-sulfoxide (DMSO) to obtain a stock solution of 20 mM. Different recombinant ALDH isozymes with a His-epitope tag at the N-terminus were constructed, cloned and expressed in BL21 E. coli host cells according published methods (Chen et al., 2008 Science 321:1493). The bacteria were subjected to 0.5 mM IPTG induction for protein expression at 30° C. Purification of the recombinant proteins by affinity nickel columns were carried out using a standard protocol according to manufacturer's instructions (Novagen, Wis., USA).
ALDH enzymatic activity was determined spectrophotometrically using purified recombinant protein (15 ug) in the reductive reaction of NAD^+ to NADH at λ340 nm (Rex et al., 1985, Alcohol Clin Exp Res 9: 147). All the assays in the presence of absence of a testing compound were carried out at 25° C. in […] pyrophosphate buffer, pH=9.5, 2.4 mM NAD+ and 10 mM acetaldehyde or phenylacetaldehyde as a substrate.

Test [1] has as its target T3, E488K ALDH1 mutant recombinant protein (Homo sapiens, UniProt P00352, E488K).
T3 sequence (P00352 1-501 E488K): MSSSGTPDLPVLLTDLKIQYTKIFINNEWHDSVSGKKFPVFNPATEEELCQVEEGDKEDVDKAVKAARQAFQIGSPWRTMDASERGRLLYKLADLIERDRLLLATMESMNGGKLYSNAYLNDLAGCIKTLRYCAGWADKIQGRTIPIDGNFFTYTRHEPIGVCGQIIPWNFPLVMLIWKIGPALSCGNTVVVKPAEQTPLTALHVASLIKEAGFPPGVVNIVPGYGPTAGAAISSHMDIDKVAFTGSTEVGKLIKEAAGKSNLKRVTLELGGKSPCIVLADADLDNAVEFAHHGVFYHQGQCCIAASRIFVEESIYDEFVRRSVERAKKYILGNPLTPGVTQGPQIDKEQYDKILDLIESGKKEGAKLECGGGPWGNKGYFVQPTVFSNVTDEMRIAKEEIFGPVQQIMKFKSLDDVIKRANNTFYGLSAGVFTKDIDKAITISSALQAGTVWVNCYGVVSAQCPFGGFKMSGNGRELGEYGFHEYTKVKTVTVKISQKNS
In words: High throughput screening against E488K ALDH1 mutant. To be noted: octylaldehyde and phenylacetaldehdye as substrates. From the text: The screening assays used octylaldehyde (an example of longer chain aliphatic aldehyde) and phenylacetaldehdye (an example of aromatic aldehyde), instead of acetaldehyde.

As usually defined, the EC50 is the concentration needed to bring the measured effect to its halfway point. Low values mean greater potency, high ones weaker potency. For `Cc1ccc(CNS(=O)(=O)c2cc(-c3cc(C)no3)ccc2C)cc1` [Alda-60, 2-methyl-N-(4-methyl-benzyl)-5-(3-methyl-isoxazol-5-yl)-benzene sulfonamide], at ALDH2, the EC50 stood at 4.96 µM. In other words, the single-digit micromolar range.
Regarding `O=C(Cn1c2ccccc2c2cn[nH]c(=O)c21)NCc1ccc2c(c1)OCO2` [Alda-72, N-benzo[1,3]dioxol-5-ylmethyl-2-(1-oxo-1,2-dihydro-2,3,9-triaza-fluoren-9-yl)-acetamide], the EC50 at ALDH2 turned out to be 2.92 µM.
Still for that read-out and setting: the same measure for `CCOC(=O)c1cc(-c2ccc(C)cc2)n(CCC(=O)N2CCN(c3ccccn3)CC2)c1C` [Alda-56, 2-methyl-1-[3-oxo-3-(4-pyridin-2-yl-piperazin-1-yl)-propyl]-5-p-tolyl-1H-pyrrole-3-carboxylic acid ethyl ester]: 3.65 µM.
Turning to `C=CCc1ccc2c(c1)OCO2` [safrole, 5-(2-propenyl)-1,3-benzodioxole], the “effect on enzymatic activity of ALDH2 isozyme” value at ALDH2 isozyme (500 uM & 1000 uM, FIG. 17) was “Inhibitory effect”. The “effect on enzymatic activity of ALDH2 isozyme, 15-minute kinetic measurements” value at ALDH2 isozyme (1000 uM, FIG. 18) is listed as “inhibitory effect”.
At ALDH2, `O=C(NCc1ccc2c(c1)OCO2)c1cc(-n2cnnc2)ccc1Cl` [Alda-53, N-benzo[1,3]dioxol-5-ylmethyl-2-chloro-5-[1,2,4]triazol-4-yl-benzamide] yielded a 50% effective concentration (EC50) of 1.09 µM. This counts as single-digit micromolar.
On the same count and under the same terms, the value for `COc1ccccc1CNc1nccn(-c2ccc3c(c2)OCCO3)c1=O` [Alda-63, 1-(2,3-dihydro-benzo[1,4]dioxin-6-yl)-3-(2-methoxy-benzylamino)-1H-pyrazin-2-one] was 12.4 µM.
For the compound `C=CCn1c(C(C)NC(=O)c2ccccc2)nc2ccccc21` (centres unmarked) [Alda-81, N-[1-(1-allyl-1H-benzoimidazol-2-yl)-ethyl]-benzamide], in test [1], the “identified as ALDH1 activator” value was “ALDH1 activators”.
In the case of `Cc1ccc(CNS(=O)(=O)c2cc(-c3onc(C)c3C)ccc2C)cc1` [Alda-61, 5-(3,4-dimethyl-isoxazol-5-yl)-2-methyl-N-(4-methyl-benzyl)-benzene sulfonamide], the concentration for a half-maximal effect (EC50) on ALDH2 is 6.44 µM.
`Cc1ccc(CNC(=O)Cn2c3ccccc3c3cn[nH]c(=O)c32)cc1` [Alda-71, N-(4-methyl-benzyl)-2-(1-oxo-1,2-dihydro-2,3,9-triaza-fluoren-9-yl)-acetamide] registered a half-maximal effective concentration (EC50) at ALDH2 of 16.6 µM.
Consider `COc1ccc(C2C(C#N)=C(C)NC3=C2C(=O)CC(c2ccc(Cl)cc2)C3)cc1` (centres unmarked) [Alda-83, 7-(4-chloro-phenyl)-4-(4-methoxy-phenyl)-2-methyl-5-oxo-1,4,5,6,7,8-hexahydro-quinoline-3-carbonitrile], for which the “identified as ALDH1 activator” value in test [1] is on record as “ALDH1 activators”.
`CCn1cnc2c(=O)oc3ccc(S(=O)(=O)NCc4ccc5c(c4)OCO5)cc3c21` [Alda-54, 1-ethyl-4-oxo-1,4-dihydro-chromeno[3,4-d]imidazole-8-sulfonic acid (benzo[1,3]dioxol-5-ylmethyl)-amide] showed a concentration for a half-maximal effect (EC50) on ALDH2 of 1.72 µM. That is a single-digit micromolar value.
Still for that read-out and setting: the value for `Cc1cc(C)cc(NC(=O)CSC2=Nc3ccccc3C3=NC(C(C)C)C(=O)N23)c1` (centres unmarked) [Alda-65, N-(3,5-dimethyl-phenyl)-2-(2-isopropyl-3-oxo-2,3-dihydro-imidazo[1,2-c]quinazolin-5-ylsulfanyl)-acetamide] was 8.41 µM.
On the same count and under the same terms, the same measure for `Cc1ccc(N2CC(c3nc(-c4cccnc4)no3)CC2=O)cc1Cl` (centres unmarked) [Alda-69, 1-(3-chloro-4-methyl-phenyl)-4-(3-pyridin-3-yl-[1,2,4]oxadiazol-5-yl)-pyrrolidin-2-one]: 8.9 µM; for `O=C(C1COc2cc(S(=O)(=O)NCc3ccccc3Cl)ccc2O1)N1CCCCCC1` (centres unmarked) [Alda-64, 2-(azepane-1-carbonyl)-N-(2-chloro-benzyl)-2,3-dihydro-benzo[1,4]dioxine-6-sulfonamide]: 2.2 µM; for `Cc1ccc(N2CC(c3nc(-c4ccncc4)no3)CC2=O)cc1F` (centres unmarked) [Alda-70, 1-(3-fluoro-4-methyl-phenyl)-4-(3-pyridin-4-yl-[1,2,4]oxadiazol-5-yl)-pyrrolidin-2-one]: 5.57 µM.
The same measure, in the same setting: the value for `NC(=O)c1cc(S(=O)(=O)NCc2ccc3c(c2)OCO3)cs1` [Alda-59, 4-[(benzo[1,3]dioxol-5-ylmethyl)-sulfamoyl]-thiophene-2-carboxylic acid amide] was 4.6 µM.
On ALDH2, `COc1cccc(CNc2nccn(-c3ccc(C)c(C)c3)c2=O)c1` [Alda-62, 1-(3,4-dimethyl-phenyl)-3-(3-methoxy-benzylamino)-1H-pyrazin-2-one] displayed an EC50 of 14.7 µM.
For the compound `Cc1ccc(-n2cc(-c3ccccc3)c3c(N4CCN(CCO)CC4)ncnc32)cc1Cl` [Alda-73, 2-{4-[7-(3-chloro-4-methyl-phenyl)-5-phenyl-7H-pyrrolo[2,3-d]pyrimidin-4-yl]-piperazin-1-yl}-ethanol], the 50% effective concentration (EC50) on ALDH2 is 3.55 µM.
Consider `Cc1ccc(-n2ncc3c(N(CCO)Cc4ccccc4)ncnc32)cc1Cl` [Alda-67, 2-{benzyl-[1-(3-chloro-4-methyl-phenyl)-1H-pyrazolo[3,4-d]pyrimidin-4-yl]-amino}-ethanol], for which it took 3.42 µM to reach a half-maximal effect on ALDH2 (EC50).
Turning to `Cc1ccc(CNC(=O)C(C)SC2=Nc3ccccc3C3=NC(C(C)C)C(=O)N23)cc1` (centres unmarked) [Alda-66, 2-(2-isopropyl-3-oxo-2,3-dihydro-imidazo[1,2-c]quinazolin-5-ylsulfanyl)-N-(4-methyl-benzyl)-propionamide], on ALDH2, the 50% effective concentration (EC50) was found to be 2.66 µM.
For `COc1c(C(=O)NCc2ccc3c(c2)OCO3)ccc2ccccc12` [Alda-52, 1-methoxy-naphthalene-2-carboxylic acid (benzo[1,3]dioxol-5-ylmethyl)-amide], a half-maximal effect at ALDH2 (EC50) was put at 3 µM.
In the case of `CCCCC(=O)Nc1cc(-c2ccc(C)cc2)no1` [Alda-57, pentanoic acid (3-p-tolyl-isoxazol-5-yl)-amide], the concentration for a half-maximal effect (EC50) at ALDH2 stood at 1.4 µM.

The values are drawn from patent US9370506B2, “Modulators of aldehyde dehydrogenase and methods of use thereof” (The Board of Trustees of the Leland Stanford Junior …, priority 2008, dated 2016).
